Test results reported in US20250221922A1, “ORAL CARE COMPOSITIONS CONTAINING RHAMNOLIPIDS” (Stepan Company, priority 2022, published 2025).

Test: Flavor Solubilization (mint flavor oils)
Type: physicochemical
Conditions: premix at the solubilization ratio
Protocol: The ability of the rhamnolipid mixture to solubilize an oil-based flavorant, such as a mint oil flavorant, was tested. The rhamnolipid composition tested was Sample 3 used above for Porphyromonas gingivalis.
Functionality was determined through a series of dilutions using the rhamnolipid mixture as a potential solubilizer component for flavor oils in the absence of synthetic or other solubilizers. The rhamnolipid composition was compared with polysorbate 20, which is a synthetic solubilizer and the industry standard for oil solubilization for flavors. Common mint flavors, such as Mint #244456 and Mint #244455 from Belle Aire Creations, were used as the flavor oils.
The rhamnolipid composition was added to each of the flavor oils in increasing amounts in order to determine the solubilizer component to flavor oil ratio at which a clear premix was obtained. Once a clear premix was obtained, that premix was then added to deionized water to ensure that the final solution was crystal clear.

## polysorbate 20
  appearance of final solution of the premix in deionized water: crystal clear
